Experimental data reported in patent US12357656B2 (AMORPHICAL LTD, priority 2019, dated 2025).

How the values were obtained:
[1] = Titration of DPBS and DMEM/F12 + 10% FBS with different carbonate sources (pH effect); format: physicochemical; details: for Amount in ml that was needed to reach pH 8: 73.5 mM carbonate suspension or solution
From the text: Two commercial media, Dulbecco's phosphate-buffered saline (DPBS) and Gibco Dulbecco's Modified Eagle Medium: Nutrient Mixture F-12 (DMEM/F12), with 10% Fetal Bovine Serum (FBS) were used to evaluate the pH effect of different sources of calcium carbonate. DPBS is Dulbecco's Phosphate Buffered Saline, generally serves as an isotonic saline solution or buffer for washing cells and tissues and intends to provide a buffer system for maintaining cell culture media in the physiological range of 7.2-7.6.
DMEM/F12 is a widely used basal medium for supporting the growth of many different mammalian cells. DMEM/F12 medium+10% FBS was used to maximally mimic the environment of the body fluids.
Three sources of calcium carbonate were used ACC, Sodium bicarbonate (SBC) and Crystalline Calcium Carbonate (CCC).
The final composition comprised 73.53 mM of CaCO3 in the water suspension.
The addition was done until a pH plateau was accomplished or the level of the solution reached the end of the capacity of the used container (˜130 ml).

[2] = system: athletes; details: about 20-35 g/day; cited from earlier work
[3] = oral administration of 300 mg/kg; Zajac 2009; cited from earlier work
[4] = chronic ingestion, 300 to 500 mg/kg; Lopes-Silva; cited from earlier work
[5] = human performance; Requena 2005; cited from earlier work
[6] = supplementation; Sounders 2016; cited from earlier work

Compound	Final pH ([1]; added to DMEM/F12 + 10% FBS)	Amount in ml that was needed to reach pH 8 ([1]; added to DMEM/F12 + 10% FBS) [ml]	Final pH ([1]; added to DPBS)	Amount in ml that was needed to reach pH 8 ([1]; added to DPBS) [ml]	reported adverse effects [2]	training intensity and swimming performance [3]	capability to reach higher pH levels ([1]; SBC compared with CCC)	Wingate test peak or mean power [4]	doses for which a significant effect was shown [5]	effect on exercise [6]
O=C([O-])[O-].[Ca+2] [CCC, Crystalline Calcium Carbonate]	7.90	80	8	65	–	–	–	–	–	–
O=C([O-])O.[Na+] [SBC, Sodium bicarbonate]	8.3	77	8.30	76.4	stomach aches and discomfort, nausea, and vomiting	can increase training intensity and swimming performance	not significantly different	chronic ingestion of NaHCO3 did	above 300 mg/kg	–
NCCC(=O)O [β-alanine]	–	–	–	–	–	–	–	–	–	significant overall ergogenic effect
